What was measured:
[1] = test system: WiDr cells (colon cancer cells; wildtype SF3B1); assay: Cell viability assay (CellTiter-Glo, 72 hr), WiDr cells; format: cell-based; conditions: Homo sapiens; WiDr cells (wildtype SF3B1); read-out: WiDr GI50
Procedure, shortened: (§1)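 Cells at 2000/well were exposed to 9 compound concentrations (0.1% DMSO) in duplicate or triplicate for 72 hr at 37 °C. ATP was read by CellTiter-Glo against a time-zero plate and DMSO control growth. Percent growth/viability was plotted against concentration to give Emax; negative values indicate lethality.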

[2] = test system: WiDr-R cells (colon cancer cells; chemically-induced SF3B1 R1074H mutant); assay: Cell viability assay (CellTiter-Glo, 72 hr), resistant WiDr-R cells (counter-screen); format: cell-based; conditions: WiDr-R cells (SF3B1 R1074H mutation, resistant); read-out: WiDr-R GI50
Procedure, shortened: as §1

[3] = test system: Panc 05.04 cells (pancreatic cancer cells; Q699H and K700E mutations in SF3B1); assay: Cell viability assay (CellTiter-Glo, 72 hr), Panc 05.04 cells; format: cell-based; conditions: Panc 05.04 cells (mutant SF3B1); for Emax: maximum achievable response in tested dose range, negative value = cellular lethality, read-out: Panc 05.04 (mt SF3B1 cells) Emax (%); for GI50: read-out: Panc 05.04 (mt SF3B1 cells), GI50
Procedure, shortened: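 Viability was read as ATP content (CellTiter-Glo) after 72 hr compound exposure of Panc 05.04 cells at 37 °C, nine concentrations, 0.1% DMSO. Percentage growth was referenced to time-zero and vehicle wells and plotted against concentration to obtain Emax; negative Emax denotes cell killing.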

SF3b complexes = target: T1, SF3b complexes (Homo sapiens, UniProt O75533+Q7RTV0); assay: Scintillation proximity assay (SPA) with [3H]-labelled pladienolide probe; format: binding; conditions: wt SF3B1, read-out: SPA (wt SF3B1 cells) IC50
T1 construct: endogenous in cells
Procedure, shortened: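 SF3b complexes immunoprecipitated from nuclear extracts with anti-SF3B1 antibody on anti-mouse PVT SPA beads. Beads pre-incubated 30 min with varying PB or PB-OH, then 2.5 nM [3H]-PB added for 30 min; scintillation signal read and fit by non-linear regression.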

| Structure (SMILES) | GI50 [1] [nM] | GI50 [2] [nM] | Emax [3] [%] | GI50 [3] [nM] | IC50 (SF3b complexes) [nM] |
| --- | --- | --- | --- | --- | --- |
| C/C(=C\C=C\[C@@H](C)COC(=O)N1CC[C@@H](O)C1)[C@H]1OC(=O)C[C@H](O)CC[C@H](C)[C@@H](OC(=O)N2CCN(C)CC2)/C=C/[C@@H]1C | 4.86 | > 1000 | -83.3 | 3.37 | 5.43 |
| CC(=O)O[C@H]1/C=C/[C@H](C)[C@@H](/C(C)=C/C=C/[C@@H](C)COC(=O)N2CCCCC2)OC(=O)C[C@H](O)CC[C@@]1(C)O | 49.7 | > 10000 | -74.6 | 82.2 | 15 |
| C/C(=C\C=C\C(C)c1ccnc(N(C)C)n1)[C@H]1OC(=O)C[C@H](O)CC[C@@](C)(O)[C@@H](OC(=O)N2CCN(C3CCCCCC3)CC2)/C=C/[C@@H]1C (some centres unmarked) | 40.1 | > 10000 | -94.5 | 98.3 | 16.1 |
| C/C(=C\C=C\[C@@H](C)COC(=O)N1[C@H](C)CC[C@H]1C)[C@H]1OC(=O)C[C@H](O)CC[C@@](C)(O)[C@@H](OC(=O)N2CCN(C)CC2)/C=C/[C@@H]1C | 1.03 | > 1000 | -68.1 | 1.12 | 2.77 |
| C/C(=C\C=C\[C@H](C)c1ccccn1)[C@H]1OC(=O)C[C@H](O)CC[C@@](C)(O)[C@@H](OC(=O)N2CCN(C3CCCCCC3)CC2)/C=C/[C@@H]1C | 65 | > 1000 | -90 | 71.8 | 5.95 |
| C/C(=C\C=C\[C@@H](C)COC(=O)N1CC[C@@H](O)C1)[C@H]1NC(=O)CCCCC[C@@H](OC(=O)N2CCN(C)CC2)/C=C/[C@@H]1C | 376 | > 10000 | 19.1 | 1180 | 267 |
| C/C(=C\C=C\[C@@H](C)COC(=O)N1CC[C@@H](O)C1)[C@H]1OC(=O)C[C@H](O)CC[C@H](C)[C@@H](OC(=O)N2CCN(C3CCCCCC3)CC2)/C=C/[C@@H]1C | 8.27 | > 1000 | -77.8 | 10.8 | 5.67 |
| C/C(=C\C=C\[C@@H](C)COC(=O)N1CCCC1)[C@H]1OC(=O)CCCC[C@@](C)(O)[C@@H](OC(=O)N2CCN(C)CC2)/C=C/[C@@H]1C | 4.92 | > 1000 | -91.4 | 2.38 | 1.67 |
| C/C(=C\C=C\[C@@H](C)CNC(=O)N1CCCC1)[C@H]1OC(=O)C[C@H](O)CC[C@@](C)(O)[C@@H](OC(=O)N2CCN(C)CC2)/C=C/[C@@H]1C | 76.6 | > 1000 | -90.4 | 54.1 | 7.62 |
| C/C(=C\C=C\C(C)c1ncccn1)[C@H]1OC(=O)C[C@H](O)CC[C@@](C)(O)[C@@H](OC(=O)N2CCN(C)CC2)/C=C/[C@@H]1C (some centres unmarked) | 60.1 | > 1000 | -22.2 | 155 | 38.4 |
| C/C(=C\C=C\[C@H](C)c1nccc(C)n1)[C@H]1OC(=O)C[C@H](O)CC[C@@](C)(O)[C@@H](OC(=O)N2CCN(C3CCCCCC3)CC2)/C=C/[C@@H]1C | 125 | > 1000 | -76.7 | 101 | 9.7 |
| CC[C@H](O)[C@@H](C)[C@H]1O[C@@H]1C[C@@](C)(O)/C=C/C=C(\C)[C@H]1OC(=O)C[C@H](O)CC[C@H](C)[C@@H](OC(C)=O)/C=C/[C@@H]1C | 2.14 | 822 | -65.3 | 4.88 | 5.28 |
| C/C(=C\C=C\[C@@H](C)COC(=O)N1CCC[C@H]1CF)[C@H]1OC(=O)C[C@H](O)CC[C@@](C)(O)[C@@H](OC(=O)N2CCN(C3CCCCCC3)CC2)/C=C/[C@@H]1C | 1.24 | > 1000 | -72.7 | 1.75 | 4.23 |
| C/C(=C\C=C\[C@@H](C)COC(=O)N1CC[C@H](F)C1)[C@H]1OC(=O)C[C@H](O)CC[C@@](C)(O)[C@@H](OC(=O)N2CCN(C3CCCCCC3)CC2)/C=C/[C@@H]1C | 4.3 | > 1000 | -79.4 | 1.76 | 1.93 |
| C/C(=C\C=C\[C@@H](C)c1ccccn1)[C@H]1OC(=O)C[C@H](O)CC[C@@](C)(O)[C@@H](OC(=O)N2CCN(C(C)C)CC2)/C=C/[C@@H]1C | 31.8 | > 1000 | -90.1 | 26.6 | 6.37 |
| C/C(=C\C=C\[C@@H](C)COC(=O)N1CCCC1)[C@H]1OC(=O)C[C@H](O)CC[C@@](C)(O)[C@@H](OC(=O)N2CCN(C3CCCCCC3)CC2)/C=C/[C@@H]1C | 2.54 | > 1000 | -87.3 | 1.66 | 2.83 |

| Structure (SMILES) | GI50 [1] [nM] | GI50 [2] [nM] | Emax [3] [%] | GI50 [3] [nM] | IC50 (SF3b complexes) [nM] |
| --- | --- | --- | --- | --- | --- |
| C/C(=C\C=C\[C@@H](C)CNC(=O)N1CCC[C@H]1CO)[C@H]1OC(=O)C[C@H](O)CC[C@@](C)(O)[C@@H](OC(=O)N2CCN(C3CCCCCC3)CC2)/C=C/[C@@H]1C | 95.9 | > 1000 | -85 | 77.3 | 40.8 |
| CCCN(C)C(=O)OC[C@H](C)/C=C/C=C(\C)[C@H]1OC(=O)C[C@H](O)CC[C@@](C)(O)[C@@H](OC(C)=O)/C=C/[C@@H]1C | 39.1 | > 1000 | -91.8 | 42.5 | 6.22 |
| C/C(=C\C=C\[C@@H](C)COC(=O)N1CC=CC1)[C@H]1OC(=O)C[C@H](O)CC[C@@](C)(O)[C@@H](OC(=O)N2CCN(C3CCCCCC3)CC2)/C=C/[C@@H]1C | 22.2 | > 1000 | -89.8 | 3.68 | 3.68 |
| C/C(=C\C=C\[C@@H](C)COC(=O)N1CCC[C@H]1CO)[C@H]1OC(=O)CCCCC[C@@H](OC(=O)N2CCN(CC(F)(F)F)CC2)/C=C/[C@@H]1C | 65.5 | > 1000 | -85.6 | 54.7 | 113 |
| CC(=O)O[C@H]1/C=C/[C@H](C)[C@@H](/C(C)=C/C=C/[C@@H](C)c2ccccn2)OC(=O)C[C@H](O)CC[C@@H]1C | 421 | > 10000 | 28.1 | 2890 | 538 |
| C/C(=C\C=C\C(C)c1cnccn1)[C@H]1OC(=O)C[C@H](O)CC[C@@](C)(O)[C@@H](OC(=O)N2CCN(C3CCCCCC3)CC2)/C=C/[C@@H]1C (some centres unmarked) | 31.9 | > 10000 | -93.7 | 22.1 | 6.37 |
| CC(=O)O[C@H]1/C=C/[C@H](C)[C@@H](/C(C)=C/C=C/[C@@H](C)COC(=O)N2CC[C@H](O)C2)OC(=O)C[C@H](O)CC[C@@]1(C)O | 51.5 | > 10000 | -89.6 | 45.1 | 96.5 |
| C/C(=C\C=C\[C@@H](C)CCC(=O)N1CCCC1)[C@H]1OC(=O)C[C@H](O)CC[C@@](C)(O)[C@@H](OC(=O)N2CCN(C)CC2)/C=C/[C@@H]1C | 26.4 | > 1000 | -87.3 | 27.3 | 4.36 |
| C/C(=C\C=C\C(C)c1cccnn1)[C@H]1OC(=O)C[C@H](O)CC[C@@](C)(O)[C@@H](OC(=O)N2CCN(C3CCCCCC3)CC2)/C=C/[C@@H]1C (some centres unmarked) | 15.1 | > 1000 | -94.7 | 22 | 3.38 |
| C/C(=C\C=C\[C@H](C)c1ccccn1)[C@H]1OC(=O)C[C@H](O)CC[C@@](C)(O)[C@@H](OC(=O)N2CCC(N3CCCCCC3)CC2)/C=C/[C@@H]1C | 7.18 | > 1000 | -93.8 | 13.6 | 2.35 |
| CC(=O)O[C@H]1/C=C/[C@H](C)[C@@H](/C(C)=C/C=C/[C@@H](C)COC(=O)N2CCC2)OC(=O)C[C@H](O)CC[C@@]1(C)O | 138 | > 10000 | -91.8 | 44.7 | 10.7 |
| C/C(=C\C=C\[C@@H](C)COC(=O)N1CCCC1)[C@H]1OC(=O)C[C@@H](O)CC[C@](C)(O)[C@@H](OC(=O)N2CCN(C)CC2)/C=C/[C@@H]1C | 15.2 | > 1000 | -90.2 | 6.55 | 47.8 |
| CC(=O)O[C@H]1/C=C/[C@H](C)[C@@H](/C(C)=C/C=C/Cc2ccccn2)OC(=O)C[C@H](O)CC[C@@]1(C)O | 559 | > 10000 | 87.2 | > 10000 | > 1200 |
| C/C(=C\C=C\[C@@H](C)CCC(=O)N1CCCC1)[C@H]1OC(=O)C[C@H](O)CC[C@@](C)(O)[C@@H](OC(=O)N2CCN(C3CCCCCC3)CC2)/C=C/[C@@H]1C | 12.7 | > 1000 | -86.9 | 3.25 | 5.11 |
| C/C(=C\C=C\[C@@H](C)c1cccnc1)[C@H]1OC(=O)C[C@H](O)CC[C@@](C)(O)[C@@H](OC(=O)N2CCN(C3CCCCCC3)CC2)/C=C/[C@@H]1C | 13.2 | > 1000 | -95.6 | 11 | 2.34 |
